In paper PMC3829359 (The Journal of Biological Chemistry, 2021):

Experiments:
DC-SIGNR CRD [1] = molecular target: T1, DC-SIGNR CRD (Homo sapiens, UniProt Q9H2X3); test: 1H-15N HSQC NMR titration, chemical shift perturbation, […] fit; type: binding; conditions: pH 6.8, 37 °C, 20 mM HEPES-d18, 20 mM NaCl, 4 mM Ca2+, 0.7 mM protein
T1 sequence (Q9H2X3 262-399): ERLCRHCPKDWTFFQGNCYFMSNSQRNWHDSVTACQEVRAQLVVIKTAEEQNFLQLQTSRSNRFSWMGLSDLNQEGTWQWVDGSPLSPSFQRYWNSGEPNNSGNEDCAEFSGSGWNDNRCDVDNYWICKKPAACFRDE

DC-SIGNR CRD [2] = molecular target: T1, DC-SIGNR CRD; test: 1H-15N HSQC NMR titration, chemical shift perturbation; type: binding; conditions: pH 6.8, 37 °C, 20 mM HEPES-d18, 20 mM NaCl, 4 mM Ca2+, 0.7 mM protein; intermediate exchange, severe line broadening, KD could not be estimated

Kd (DC-SIGNR CRD [1]) [mM] | Compound | 1H-15N HSQC NMR titration, chemical shift perturbation (DC-SIGNR CRD [2])
2.04 ± 0.54 | OC[C@H]1O[C@H](OC[C@H]2OC(O)[C@@H](O)[C@@H](O[C@H]3O[C@H](CO)[C@@H](O)[C@H](O)[C@@H]3O)[C@@H]2O)[C@@H](O)[C@@H](O)[C@@H]1O (stereo partly drawn) [Man3] | 
2.2 ± 0.43 | OC[C@H]1O[C@H](OC[C@H]2O[C@H](OC[C@H]3OC(O)[C@@H](O)[C@@H](O[C@H]4O[C@H](CO)[C@@H](O)[C@H](O)[C@@H]4O)[C@@H]3O)[C@@H](O)[C@@H](O[C@H]3O[C@H](CO)[C@@H](O)[C@H](O)[C@@H]3O)[C@@H]2O)[C@@H](O)[C@@H](O)[C@@H]1O (stereo partly drawn) [Man5] | 
 | CC(=O)N[C@H]1C(O)O[C@H](CO)[C@@H](O[C@@H]2O[C@H](CO[C@H]3O[C@H](CO[C@H]4O[C@H](CO)[C@@H](O)[C@H](O)[C@@H]4O[C@H]4O[C@H](CO)[C@@H](O)[C@H](O)[C@@H]4O)[C@@H](O)[C@H](O[C@H]4O[C@H](CO)[C@@H](O)[C@H](O)[C@@H]4O[C@H]4O[C@H](CO)[C@@H](O)[C@H](O)[C@@H]4O)[C@@H]3O)[C@@H](O)[C@H](O[C@H]3O[C@H](CO)[C@@H](O)[C@H](O)[C@@H]3O[C@H]3O[C@H](CO)[C@@H](O)[C@H](O)[C@@H]3O[C@H]3O[C@H](CO)[C@@H](O)[C@H](O)[C@@H]3O)[C@@H]2O)[C@@H]1O (stereo partly drawn) [Man9GlcNAc] | binding of Man9GlcNAc caused substantial broadening and disappearance of a number of CRD peaks
